# Results taken from patent US5869494A, “Uses for barbituric acid analogs” (priority 1997, dated 1999).
# Key:
# Assay in all cases: NCI tumor cell line screen (SRB assay)
# Type in all cases: cell-based
# Design in all cases: activity: dose or concentration left out as unconfirmed
# [1] = test system: UACC-257; conditions: Homo sapiens, read-out: PERCENT GROWTH
# Procedure: (§1) The National Cancer Institute carried out the studies at the direction of the present inventor.
# (§2) In the tests, the National Cancer Institute used the SRB (sulforhodamine B) assay as described by Skehan et al., (Journal of the National Cancer Institute, 82:13, Jul. 4, 1990, 1107-1112). Briefly, the assay is as follows. TCA-fixed cells were stained for 30 minutes with 0.4% (wt/vol) SRB dissolved in 1% acetic acid. At the end of the staining period, SRB was removed and cultures were quickly rinsed four times with 1% acetic acid to remove unbound dye. The acetic acid was poured directly into the culture wells from a beaker. […] Residual wash solution was removed by sharply flicking plates over a sink, which ensured the complete removal of rinsing solution. […] After being rinsed, the cultures were air dried until no standing moisture was visible. Bound dye was solubilized with 10 mM unbuffered Tris base (pH 10.5) for 5 minutes on a gyratory shaker.
# (§3) Optical density (OD) was read in either a UVmax microtiter plate reader (Molecular Devices, Menlo Park, Calif.) or a Beckman DU-70 spectrophotometer. For maximum sensitivity, OD was measured at 564 nm. Because readings were linear with dye concentrations only below 1.8 OD units, however, suboptimal wavelengths were generally used, so that all samples in an experiment remained within the linear OD range. With most cell lines, wavelengths of approximately 490-530 nm worked well for this purpose.
# (§4) Nine different non-small cell lung carcinoma cell lines, six different colon carcinoma cell lines, six different CNS (central nervous system) carcinoma cell lines, seven different melanoma cell lines, six different ovarian carcinoma cell lines, and eight different renal carcinoma cell lines were tested.
# [2] = test system: ACHN; conditions: Homo sapiens, read-out: PERCENT GROWTH
# Procedure: as §1, §2, §3, §4
# [3] = test system: 786-0; conditions: Homo sapiens, read-out: PERCENT GROWTH
# Procedure: as §1, §2, §3, §4
# [4] = test system: CAKI-1; conditions: Homo sapiens, read-out: PERCENT GROWTH
# Procedure: as §1, §2, §3, §4
# [5] = test system: HCT-116; conditions: Homo sapiens, read-out: PERCENT GROWTH
# Procedure: as §1, §2, §3, §4
# [6] = test system: EKVX; conditions: Homo sapiens, read-out: PERCENT GROWTH
# Procedure: as §1, §2, §3, §4
# [7] = test system: OVCAR-4; conditions: Homo sapiens, read-out: PERCENT GROWTH
# Procedure: as §1, §2, §3, §4
# [8] = test system: SK-MEL-28; conditions: Homo sapiens, read-out: PERCENT GROWTH
# Procedure: as §1, §2, §3, §4
# [9] = test system: IGROV1; conditions: Homo sapiens, IGROV-1, read-out: PERCENT GROWTH
# Procedure: as §1, §2, §3, §4
# [10] = test system: SNB-75; conditions: Homo sapiens, read-out: PERCENT GROWTH
# Procedure: as §1, §2, §3, §4
# [11] = test system: SN12C; conditions: Homo sapiens, read-out: PERCENT GROWTH
# Procedure: as §1, §2, §3, §4
# [12] = test system: HOP-62; conditions: Homo sapiens, read-out: PERCENT GROWTH
# Procedure: as §1, §2, §3, §4
# [13] = test system: A549/ATCC; conditions: Homo sapiens, read-out: PERCENT GROWTH
# Procedure: as §1, §2, §3, §4
# [14] = test system: SK-OV-3; conditions: Homo sapiens, read-out: PERCENT GROWTH
# Procedure: as §1, §2, §3, §4
# [15] = test system: OVCAR-5; conditions: Homo sapiens, read-out: PERCENT GROWTH
# Procedure: as §1, §2, §3, §4
# [16] = test system: A498; conditions: Homo sapiens, read-out: PERCENT GROWTH
# Procedure: as §1, §2, §3, §4
# [17] = test system: LOX IMVI; conditions: Homo sapiens, read-out: PERCENT GROWTH
# Procedure: as §1, §2, §3, §4
structure (smiles),measurement,setting,value
"CCCCN1C(=O)CC(=O)N(CCCC)C1=S [Compound C1, 4,6(1H, 5H)-pyrimidinedione, 1,3-dibutyldihydro-2-thioxo]",activity,[1]; 10^-3.0 Molar,-77%
same,activity at 100 µM,[1]; 10^-4.0 Molar,75%
same,activity at 10 µM,[1]; 10^-5.0 Molar,96%
same,activity at 1 µM,[1]; 10^-6.0 Molar,102%
same,activity at 0.1 µM,[1]; 10^-7.0 Molar,102%
same,activity,[2]; 10^-3.0 Molar,-3%
same,activity at 100 µM,[2]; 10^-4.0 Molar,89%
same,activity at 10 µM,[2]; 10^-5.0 Molar,107%
same,activity at 1 µM,[2]; 10^-6.0 Molar,105%
same,activity at 0.1 µM,[2]; 10^-7.0 Molar,99%
same,activity,[3]; 10^-3.0 Molar,-100%
same,activity at 100 µM,[3]; 10^-4.0 Molar,87%
same,activity at 10 µM,[3]; 10^-5.0 Molar,115%
same,activity at 1 µM,[3]; 10^-6.0 Molar,82%
same,activity,[4]; 10^-3.0 Molar,-100%
same,activity at 100 µM,[4]; 10^-4.0 Molar,92%
same,activity at 10 µM,[4]; 10^-5.0 Molar,73%
same,activity at 1 µM,[4]; 10^-6.0 Molar,85%
same,activity at 0.1 µM,[4]; 10^-7.0 Molar,103%
same,activity,[5]; 10^-3.0 Molar,-100%
same,activity at 100 µM,[5]; 10^-4.0 Molar,48%
same,activity at 10 µM,[5]; 10^-5.0 Molar,118%
same,activity at 1 µM,[5]; 10^-6.0 Molar,111%
same,activity at 0.1 µM,[5]; 10^-7.0 Molar,109%
same,activity,[6]; 10^-3.0 Molar,-69%
same,activity at 100 µM,[6]; 10^-4.0 Molar,94%
same,activity at 10 µM,[6]; 10^-5.0 Molar,104%
same,activity at 1 µM,[6]; 10^-6.0 Molar,106%
same,activity at 0.1 µM,[6]; 10^-7.0 Molar,98%
same,activity,[7]; 10^-3.0 Molar,-75%
same,activity at 100 µM,[7]; 10^-4.0 Molar,66%
same,activity at 10 µM,[7]; 10^-5.0 Molar,105%
same,activity at 1 µM,[7]; 10^-6.0 Molar,104%
same,activity at 0.1 µM,[7]; 10^-7.0 Molar,101%
same,activity,[8]; 10^-3.0 Molar,-75%
same,activity at 100 µM,[8]; 10^-4.0 Molar,69%
same,activity at 10 µM,[8]; 10^-5.0 Molar,108%
same,activity at 1 µM,[8]; 10^-6.0 Molar,111%
same,activity at 0.1 µM,[8]; 10^-7.0 Molar,110%
same,activity,[9]; 10^-3.0 Molar,-85%
same,activity at 100 µM,[9]; 10^-4.0 Molar,88%
same,activity at 10 µM,[9]; 10^-5.0 Molar,103%
same,activity at 1 µM,[9]; 10^-6.0 Molar,107%
same,activity at 0.1 µM,[9]; 10^-7.0 Molar,105%
same,activity,[10]; 10^-3.0 Molar,-65%
same,activity at 100 µM,[10]; 10^-4.0 Molar,83%
same,activity at 10 µM,[10]; 10^-5.0 Molar,120%
same,activity at 1 µM,[10]; 10^-6.0 Molar,113%
same,activity at 0.1 µM,[10]; 10^-7.0 Molar,106%
same,activity,[11]; 10^-3.0 Molar,-42%
same,activity at 100 µM,[11]; 10^-4.0 Molar,62%
same,activity at 10 µM,[11]; 10^-5.0 Molar,89%
same,activity at 1 µM,[11]; 10^-6.0 Molar,58%
same,activity at 0.1 µM,[11]; 10^-7.0 Molar,90%
same,activity,[12]; 10^-3.0 Molar,-100%
same,activity at 100 µM,[12]; 10^-4.0 Molar,93%
same,activity at 10 µM,[12]; 10^-5.0 Molar,96%
same,activity at 1 µM,[12]; 10^-6.0 Molar,99%
same,activity at 0.1 µM,[12]; 10^-7.0 Molar,98%
same,activity,[13]; 10^-3.0 Molar,-98%
same,activity at 100 µM,[13]; 10^-4.0 Molar,67%
same,activity at 10 µM,[13]; 10^-5.0 Molar,95%
same,activity at 1 µM,[13]; 10^-6.0 Molar,95%
same,activity at 0.1 µM,[13]; 10^-7.0 Molar,98%
same,activity,[14]; 10^-3.0 Molar,-100%
same,activity at 100 µM,[14]; 10^-4.0 Molar,85%
same,activity at 10 µM,[14]; 10^-5.0 Molar,92%
same,activity at 1 µM,[14]; 10^-6.0 Molar,90%
same,activity at 0.1 µM,[14]; 10^-7.0 Molar,95%
same,activity,[15]; 10^-3.0 Molar,-97%
same,activity at 100 µM,[15]; 10^-4.0 Molar,97%
same,activity at 10 µM,[15]; 10^-5.0 Molar,99%
same,activity at 1 µM,[15]; 10^-6.0 Molar,98%
same,activity at 0.1 µM,[15]; 10^-7.0 Molar,102%
same,activity,[16]; 10^-3.0 Molar,-81%
same,activity at 100 µM,[16]; 10^-4.0 Molar,62%
same,activity at 10 µM,[16]; 10^-5.0 Molar,96%
same,activity at 1 µM,[16]; 10^-6.0 Molar,105%
same,activity at 0.1 µM,[16]; 10^-7.0 Molar,99%
same,activity,[17]; 10^-3.0 Molar,-100%
same,activity at 100 µM,[17]; 10^-4.0 Molar,65%
same,activity at 10 µM,[17]; 10^-5.0 Molar,102%
same,activity at 1 µM,[17]; 10^-6.0 Molar,106%
same,activity at 0.1 µM,[17]; 10^-7.0 Molar,101%
